Measured values reported in paper PMC6151521, “Characterization of the Ornithine Hydroxylation Step in Albachelin Biosynthesis” (Molecules : A Journal of Synthetic Chemistry and Natural …, 2017).

Tested on: T1, albachelin monooxygenase (AMO)
T1 construct: expressed in E. coli (pVP56K) as 8xHis-MBP fusion, tag removed with TEV protease; MW 49 kDa
Assay: oxygen consumption (Oxygraph)
Format: biochemical, Amycolatopsis alba
Settings: holo-AMO, 100 mM sodium phosphate pH 7.5
Source text: oxygen consumption (Oxygraph) on albachelin monooxygenase (AMO)

In the case of NCCC[C@H](N)C(=O)O [Orn], the Km (5 mM NADPH) is reported as 305 ± 108 µM.
Work on NC(=O)C1=CN([C@@H]2O[C@H](COP(=O)(O)OP(=O)(O)OC[C@H]3O[C@@H](n4cnc5c(N)ncnc54)[C@H](OP(=O)(O)O)[C@@H]3O)[C@@H](O)[C@H]2O)C=CC1 [NADPH] yielded a Km (10 mM Orn) of 1400 ± 160 µM.
NC(=O)C1=CN([C@@H]2O[C@H](COP(=O)(O)OP(=O)(O)OC[C@H]3O[C@@H](n4cnc5c(N)ncnc54)[C@H](O)[C@@H]3O)[C@@H](O)[C@H]2O)C=CC1 [NADH] was tested, and the Km (10 mM Orn) was 320 ± 100 µM.
